Consider 59 molecules from US7101878B1 (Agouron Pharmaceuticals, Inc., priority 1998, dated 2006).

SMILES strings stand for the structures.

In this experiment the target is T1, mouse GnRH receptor (Mus musculus, UniProt Q01776).
T1 construct: expressed in transfected cells; host or cells: 293 cells
T1 sequence (Q01776 1-327): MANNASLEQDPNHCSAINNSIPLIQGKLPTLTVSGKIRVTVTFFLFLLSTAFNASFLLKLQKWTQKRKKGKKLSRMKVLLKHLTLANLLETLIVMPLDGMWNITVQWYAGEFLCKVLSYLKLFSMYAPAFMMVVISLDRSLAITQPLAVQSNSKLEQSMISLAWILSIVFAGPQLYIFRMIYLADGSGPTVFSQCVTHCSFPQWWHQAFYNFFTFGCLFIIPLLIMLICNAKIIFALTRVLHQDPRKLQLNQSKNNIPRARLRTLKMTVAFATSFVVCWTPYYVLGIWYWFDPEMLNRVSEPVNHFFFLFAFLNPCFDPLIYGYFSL
The experiment can be described thus: Radioligand binding, 125I-GnRH-A, 293 cells expressing mouse GnRH receptors. The following applies: 1 h, substrate remaining; 10 uM compound; closer to zero = closer to 100% inhibition; read-out: S%R 10 uM mGnRHR. The gist of the method: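 Bound label captured on 0.1% polyethyleneimine-treated GF/C filters, washed three times with PBS, counted. IC50 derived; identical set-up for every species.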
Turning to `Cc1cc2c(cc1Cc1ccc(C(=O)N(CCCN3CCN(C)CC3)Cc3cc(C)n(-c4cccc(C(F)(F)F)c4)c3C)o1)C(C)(C)CCC2(C)C` [Compound 567], the remaining activity at 10 µM is -1%.

Regarding `CCC(C)CNC(=O)c1ccc(Cc2cc3c(cc2C)C(C)(C)CCC3(C)C)o1` (centres unmarked) [Compound 568], the remaining activity at 10 µM worked out at 28%.

On to `Cc1cc2c(cc1Cc1ccc(C(=O)N3CCC(O)(c4ccc(Cl)cc4)CC3)o1)C(C)(C)CCC2(C)C` [Compound 569], for which the remaining activity at 10 µM worked out at 58%.

Consider `Cc1cc2c(cc1Cc1ccc(C(=O)NC3c4ccccc4-c4ccccc43)o1)C(C)(C)CCC2(C)C` [Compound 570], for which the remaining activity at 10 µM amounted to 48%.

For the molecule `Cc1cc2c(cc1Cc1ccc(C(=O)NCC3(O)CCCCC3)o1)C(C)(C)CCC2(C)C` [Compound 571], the remaining activity at 10 µM worked out at 36%.

`Cc1cc2c(cc1Cc1ccc(C(=O)NC3CCC3)o1)C(C)(C)CCC2(C)C` [Compound 572]: the remaining activity at 10 µM was found to be 41%.

As for `Cc1cc2c(cc1Cc1ccc(C(=O)N3CCC(C(=O)c4ccc(F)cc4)CC3)o1)C(C)(C)CCC2(C)C` [Compound 573], the remaining activity at 10 µM was 37%.

Regarding `Cc1cc2c(cc1Cc1ccc(C(=O)NC(CO)C(C)C)o1)C(C)(C)CCC2(C)C` (centres unmarked) [Compound 574], the remaining activity at 10 µM is 13%.

For `Cc1cc2c(cc1Cc1ccc(C(=O)N(CCN(C)C)Cc3cccc4ccccc34)o1)C(C)(C)CCC2(C)C` [Compound 575], the remaining activity at 10 µM is -3%.

With `Cc1cc2c(cc1Cc1ccc(C(=O)N(C)CC3OCCO3)o1)C(C)(C)CCC2(C)C` [Compound 576], the remaining activity at 10 µM is 15%.

`CC(=O)N1CCN(C(=O)c2ccc(Cc3cc4c(cc3C)C(C)(C)CCC4(C)C)o2)CC1` [Compound 577]: the remaining activity at 10 µM stood at 30%.

As to `COc1ccc(C(NC(=O)c2ccc(Cc3cc4c(cc3C)C(C)(C)CCC4(C)C)o2)C2CC2)cc1` (centres unmarked) [Compound 578], the remaining activity at 10 µM was 17%.

Regarding `Cc1cc2c(cc1Cc1ccc(C(=O)N3CC(C)CC(C)C3)o1)C(C)(C)CCC2(C)C` (centres unmarked) [Compound 579], the remaining activity at 10 µM worked out at 10%.

`Cc1cc2c(cc1Cc1ccc(C(=O)N(C)CC#N)o1)C(C)(C)CCC2(C)C` [Compound 580]: the remaining activity at 10 µM was determined as 18%.

Regarding `Cc1cc2c(cc1Cc1ccc(C(=O)N3CCN(c4cccc(C)c4C)CC3)o1)C(C)(C)CCC2(C)C` [Compound 581], the remaining activity at 10 µM was found to be 43%.

Take `Cc1cc2c(cc1Cc1ccc(C(=O)NC[C@@H]3CCCO3)o1)C(C)(C)CCC2(C)C` [Compound 582]: the remaining activity at 10 µM is -2%.

In the case of `Cc1cc2c(cc1Cc1ccc(C(=O)N(CCCN3CCN(C)CC3)Cc3ccc(F)cc3)o1)C(C)(C)CCC2(C)C` [Compound 583], the remaining activity at 10 µM is -3%.

Take `Cc1cc2c(cc1Cc1ccc(C(=O)N(CC(C)C)CC(C)C)o1)C(C)(C)CCC2(C)C` [Compound 584]: the remaining activity at 10 µM was 15%.

With `Cc1cc2c(cc1Cc1ccc(C(=O)N3CCC(Cc4ccccc4)CC3)o1)C(C)(C)CCC2(C)C` [Compound 585], the remaining activity at 10 µM came to 52%.

Turning to `Cc1cc2c(cc1Cc1ccc(C(=O)N3CCCCC3C(=O)NC(c3ccccc3)c3ccccc3)o1)C(C)(C)CCC2(C)C` (centres unmarked) [Compound 586], the remaining activity at 10 µM was determined as 57%.

On to `Cc1cc2c(cc1Cc1ccc(C(=O)NC(C)CCCC(C)C)o1)C(C)(C)CCC2(C)C` (centres unmarked) [Compound 587], for which the remaining activity at 10 µM turned out to be 29%.

Turning to `Cc1cc2c(cc1Cc1ccc(C(=O)N3CCC(N4CCCC4)CC3)o1)C(C)(C)CCC2(C)C` [Compound 588], the remaining activity at 10 µM worked out at 4%.

Take `CCCN(Cc1ccc([N+](=O)[O-])cc1)C(=O)c1ccc(Cc2cc3c(cc2C)C(C)(C)CCC3(C)C)o1` [Compound 589]: the remaining activity at 10 µM is 35%.

Regarding `Cc1cc2c(cc1Cc1ccc(C(=O)N(CCN(C)C)Cc3ccccc3[N+](=O)[O-])o1)C(C)(C)CCC2(C)C` [Compound 590], the remaining activity at 10 µM is -2%.

In the case of `Cc1cc2c(cc1Cc1ccc(C(=O)N3C[C@H]4CCCC[C@H]4CC3C(=O)NC(C)(C)C)o1)C(C)(C)CCC2(C)C` (some centres unmarked) [Compound 591], the remaining activity at 10 µM was found to be 48%.

For the molecule `Cc1cc2c(cc1Cc1ccc(C(=O)N3CC(C)OC(C)C3)o1)C(C)(C)CCC2(C)C` (centres unmarked) [Compound 592], the remaining activity at 10 µM came to 17%.

Turning to `Cc1cc2c(cc1Cc1ccc(C(=O)NCCCCCO)o1)C(C)(C)CCC2(C)C` [Compound 593], the remaining activity at 10 µM was found to be 2%.

With `Cc1cc2c(cc1Cc1ccc(C(=O)NCCC3=CCCCC3)o1)C(C)(C)CCC2(C)C` [Compound 594], the remaining activity at 10 µM was determined as 16%.

Take `Cc1cc2c(cc1Cc1ccc(C(=O)N(CCc3ccccn3)Cc3ccccc3)o1)C(C)(C)CCC2(C)C` [Compound 595]: the remaining activity at 10 µM came out at 24%.

`Cc1cc2c(cc1Cc1ccc(C(=O)NCC(O)c3ccccc3)o1)C(C)(C)CCC2(C)C` (centres unmarked) [Compound 596]: the remaining activity at 10 µM was -1%.

In the case of `CCC(CO)NC(=O)c1ccc(Cc2cc3c(cc2C)C(C)(C)CCC3(C)C)o1` (centres unmarked) [Compound 597], the remaining activity at 10 µM was determined as 11%.

With `Cc1cc2c(cc1Cc1ccc(C(=O)N(CCC3CCCN3C)Cc3ccc4ccccc4c3)o1)C(C)(C)CCC2(C)C` (centres unmarked) [Compound 598], the remaining activity at 10 µM is -4%.

`CC(=O)N1CCCN(C(=O)c2ccc(Cc3cc4c(cc3C)C(C)(C)CCC4(C)C)o2)CC1` [Compound 599]: the remaining activity at 10 µM was determined as 28%.

On to `Cc1cc2c(cc1Cc1ccc(C(=O)N3CCC(CCCC4CCN(CCO)CC4)CC3)o1)C(C)(C)CCC2(C)C` [Compound 600], for which the remaining activity at 10 µM is -4%.

As to `Cc1cc2c(cc1Cc1ccc(C(=O)NCC(C)(C)CO)o1)C(C)(C)CCC2(C)C` [Compound 601], the remaining activity at 10 µM stood at 17%.

For the molecule `Cc1cc2c(cc1Cc1ccc(C(=O)NCCNc3cccc4ccccc34)o1)C(C)(C)CCC2(C)C` [Compound 602], the remaining activity at 10 µM is 44%.

Take `Cc1cc2c(cc1Cc1ccc(C(=O)N(CCN3CCCCC3)Cc3ccccc3)o1)C(C)(C)CCC2(C)C` [Compound 603]: the remaining activity at 10 µM was -4%.

As to `Cc1cc2c(cc1Cc1ccc(C(=O)NCc3ccc(F)cc3)o1)C(C)(C)CCC2(C)C` [Compound 604], the remaining activity at 10 µM was 4%.

For the molecule `Cc1cc2c(cc1Cc1ccc(C(=O)N3CCC(C)CC3)o1)C(C)(C)CCC2(C)C` [Compound 605], the remaining activity at 10 µM is 19%.

`Cc1cc2c(cc1Cc1ccc(C(=O)N(Cc3ccco3)C3CC(=O)N(C)C3=O)o1)C(C)(C)CCC2(C)C` (centres unmarked) [Compound 606]: the remaining activity at 10 µM is 32%.

As to `COC(CNC(=O)c1ccc(Cc2cc3c(cc2C)C(C)(C)CCC3(C)C)o1)OC` [Compound 607], the remaining activity at 10 µM is -2%.

As for `Cc1cc2c(cc1Cc1ccc(C(=O)N(C)CCCN(C)C)o1)C(C)(C)CCC2(C)C` [Compound 608], the remaining activity at 10 µM came to 8%.

As for `Cc1cc2c(cc1Cc1ccc(C(=O)NCCS)o1)C(C)(C)CCC2(C)C` [Compound 609], the remaining activity at 10 µM was found to be 47%.

Regarding `Cc1cc2c(cc1Cc1ccc(C(=O)N(Cc3cccnc3)Cc3cccnc3)o1)C(C)(C)CCC2(C)C` [Compound 610], the remaining activity at 10 µM turned out to be 0%.

On to `COC(CN(C)C(=O)c1ccc(Cc2cc3c(cc2C)C(C)(C)CCC3(C)C)o1)OC` [Compound 611], for which the remaining activity at 10 µM worked out at 11%.

Regarding `Cc1cc2c(cc1Cc1ccc(C(=O)N(Cc3ccsc3)C3CCN(Cc4ccccc4)C3)o1)C(C)(C)CCC2(C)C` (centres unmarked) [Compound 612], the remaining activity at 10 µM was 9%.

Turning to `Cc1cc2c(cc1Cc1ccc(C(=O)NCc3cccc(CNC(=O)C(Cc4ccccc4)c4ccccc4)c3)o1)C(C)(C)CCC2(C)C` (centres unmarked) [Compound 613], the remaining activity at 10 µM turned out to be 53%.

Regarding `COc1cc2c(cc1OC)C(CC#N)N(C(=O)c1ccc(Cc3cc4c(cc3C)C(C)(C)CCC4(C)C)o1)CC2` (centres unmarked) [Compound 614], the remaining activity at 10 µM was found to be 48%.

Regarding `CCN(CC)CCNC(=O)c1ccc(Cc2cc3c(cc2C)C(C)(C)CCC3(C)C)o1` [Compound 615], the remaining activity at 10 µM was 7%.

Regarding `Cc1cc2c(cc1Cc1ccc(C(=O)NC(C)c3ccccc3)o1)C(C)(C)CCC2(C)C` (centres unmarked) [Compound 616], the remaining activity at 10 µM worked out at 29%.

Turning to `Cc1cc2c(cc1Cc1ccc(C(=O)NCCCCCCO)o1)C(C)(C)CCC2(C)C` [Compound 617], the remaining activity at 10 µM is -2%.

`Cc1cc2c(cc1Cc1ccc(C(=O)N(Cc3ccoc3)C3CCN(Cc4ccccc4)C3)o1)C(C)(C)CCC2(C)C` (centres unmarked) [Compound 618]: the remaining activity at 10 µM stood at 9%.

Turning to `Cc1cc2c(cc1Cc1ccc(C(=O)N(C)CCC3OCCO3)o1)C(C)(C)CCC2(C)C` [Compound 619], the remaining activity at 10 µM was 5%.

With `Cc1cc2c(cc1Cc1ccc(C(=O)NCC(C)(C)CN(C)C)o1)C(C)(C)CCC2(C)C` [Compound 620], the remaining activity at 10 µM amounted to 3%.

Take `Cc1cc2c(cc1Cc1ccc(C(=O)N3CCCC3C(=O)NC(c3ccccc3)c3ccccc3)o1)C(C)(C)CCC2(C)C` (centres unmarked) [Compound 621]: the remaining activity at 10 µM came to 43%.

As for `Cc1cc2c(cc1Cc1ccc(C(=O)NCCc3ccc(Oc4ccccc4)cc3)o1)C(C)(C)CCC2(C)C` [Compound 622], the remaining activity at 10 µM was 43%.

For `Cc1cc2c(cc1Cc1ccc(C(=O)N(Cc3cccn3C)C3CCN(Cc4ccccc4)C3)o1)C(C)(C)CCC2(C)C` (centres unmarked) [Compound 623], the remaining activity at 10 µM amounted to 2%.

`C=C(C)CNC(=O)c1ccc(Cc2cc3c(cc2C)C(C)(C)CCC3(C)C)o1` [Compound 624]: the remaining activity at 10 µM stood at 8%.

For the molecule `Cc1cc2c(cc1Cc1ccc(C(=O)NC(C)CN(C)C)o1)C(C)(C)CCC2(C)C` (centres unmarked) [Compound 625], the remaining activity at 10 µM is 8%.
